Laboratory results from PubChem BioAssay (NCI).
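Grown in 96-well plates, cells were treated for 48 hours with each compound at five concentrations. Insufficient inhibition: endpoint recorded as highest concentration tested. At the GI50, growth is halved. At the TGI there is no net growth.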

Legend:
Assay in all cases: DTP human tumour cell line panel, 48 h
[1] = system: HT29 colon
[2] = system: SK-MEL-5 melanoma
[3] = system: SF-295 CNS
[4] = system: SK-OV-3 ovarian
[5] = system: HCC-2998 colon
[6] = system: SK-MEL-28 melanoma
[7] = system: IGROV1 ovarian
[8] = system: NCI-H226 lung
[9] = system: DU-145 prostate
[10] = system: U251 CNS
[11] = system: SNB-75 CNS
[12] = system: SW-620 colon
[13] = system: BT-549 breast
[14] = system: RPMI-8226 leukemia
[15] = system: MALME-3M melanoma
[16] = system: UO-31 renal
[17] = system: NCI-H460 lung
[18] = system: OVCAR-5 ovarian
[19] = system: OVCAR-3 ovarian
[20] = system: MCF7 breast
[21] = system: SF-268 CNS
[22] = system: ACHN renal
[23] = system: SF-539 CNS
[24] = system: COLO 205 colon
[25] = system: MDA-MB-231 breast
[26] = system: LOX IMVI melanoma
[27] = system: OVCAR-8 ovarian
[28] = system: NCI/ADR-RES ovarian
[29] = system: HS 578T breast
[30] = system: A498 renal
[31] = system: T-47D breast
[32] = system: 786-0 renal
[33] = system: K-562 leukemia
[34] = system: NCI-H23 lung
[35] = system: SN12C renal
[36] = system: HOP-62 NSCLC
[37] = system: HL-60(TB) leukemia
[38] = system: SNB-19 CNS
[39] = system: HCT-15 colon
[40] = system: PC-3 prostate
[41] = system: MDA-MB-435
[42] = system: KM12 colon
[43] = system: HCT-116 colon
[44] = system: MOLT-4 leukemia
[45] = system: TK-10 renal
[46] = system: SK-MEL-2 melanoma
[47] = system: UACC-62 melanoma
[48] = system: M14 melanoma
[49] = system: OVCAR-4 ovarian
[50] = system: HOP-92 NSCLC
[51] = system: RXF 393 renal
[52] = system: CAKI-1 renal
[53] = system: SR leukemia
[54] = system: MDA-N
[55] = system: CCRF-CEM leukemia
[56] = system: UACC-257 melanoma
[57] = system: EKVX NSCLC

## Oc1ccccc1CNCC12CC3CC(CC(C3)C1)C2
[1]
  GI50: 15.2 µM
  TGI: 47.7 µM
[2]
  GI50: 13.5 µM
  TGI: 26.9 µM
[3]
  GI50: 19.3 µM
  TGI: 42.2 µM
[4]
  GI50: 35.8 µM
  TGI: > 100 µM
[5]
  GI50: 12.2 µM
  TGI: 26.9 µM
[6]
  GI50: 23.6 µM
  TGI: 52.7 µM
[7]
  GI50: 41.8 µM
  TGI: > 100 µM
[8]
  GI50: 68.5 µM
  TGI: > 100 µM
[9]
  GI50: 48.9 µM
  TGI: > 100 µM
[10]
  GI50: 20.7 µM
  TGI: 49.3 µM
[11]
  GI50: 34.9 µM
  TGI: > 100 µM
[12]
  GI50: 24.3 µM
  TGI: 84.8 µM
[13]
  GI50: 14 µM
  TGI: 74.8 µM
[14]
  GI50: 18.1 µM
  TGI: 45 µM
[15]
  GI50: 21.2 µM
  TGI: 48.8 µM
[16]
  GI50: 20.3 µM
  TGI: > 100 µM
[17]
  GI50: 23.3 µM
  TGI: 57.7 µM
[18]
  GI50: 33 µM
  TGI: > 100 µM
[19]
  GI50: 57.5 µM
  TGI: > 100 µM
[20]
  GI50: 16.8 µM
  TGI: 34.7 µM
[21]
  GI50: 46.8 µM
  TGI: > 100 µM
[22]
  GI50: 39.6 µM
  TGI: > 100 µM
[23]
  GI50: 33.3 µM
  TGI: > 100 µM
[24]
  GI50: 15.6 µM
  TGI: 31 µM
[25]
  GI50: 27.7 µM
  TGI: > 100 µM
[26]
  GI50: 20.6 µM
  TGI: 76 µM
[27]
  GI50: 79.9 µM
  TGI: > 100 µM
[28]
  GI50: 40.4 µM
  TGI: > 100 µM
[29]
  GI50: 19.4 µM
  TGI: 74.4 µM
[30]
  GI50: 10.4 µM
  TGI: 31.5 µM
[31]
  GI50: 20.1 µM
  TGI: 44.6 µM
[32]
  GI50: 16.2 µM
  TGI: 33.5 µM
[33]
  GI50: 5.39 µM
  TGI: > 100 µM
[34]
  GI50: 32.4 µM
  TGI: > 100 µM
[35]
  GI50: 32.6 µM
  TGI: > 100 µM
[36]
  GI50: 28.8 µM
  TGI: 84 µM
[37]
  GI50: 22 µM
  TGI: 53.3 µM
[38]
  GI50: 60.3 µM
  TGI: > 100 µM
[39]
  GI50: 24.8 µM
  TGI: 91.1 µM
[40]
  GI50: 26 µM
  TGI: > 100 µM
[41]
  GI50: 18.6 µM
  TGI: 43.7 µM
[42]
  GI50: 23.7 µM
  TGI: 66 µM
[43]
  GI50: 22 µM
  TGI: > 100 µM
[44]
  GI50: 24.5 µM
  TGI: 70.2 µM
[45]
  GI50: 31.2 µM
  TGI: > 100 µM
[46]
  GI50: 20.2 µM
  TGI: 41.2 µM
[47]
  GI50: 17.8 µM
  TGI: 38.7 µM
[48]
  GI50: 15.7 µM
  TGI: 38.3 µM
[49]
  GI50: 48.8 µM
  TGI: > 100 µM
[50]
  GI50: 9.64 µM
  TGI: 37.9 µM
[51]
  GI50: 16.7 µM
  TGI: 40.3 µM
[52]
  GI50: 37 µM
  TGI: > 100 µM
[53]
  GI50: 20.4 µM
  TGI: 58.6 µM

## CCN(CC)c1c(-c2c(N(CC)CC)c(OC(C)=O)c3sccn3c2=O)c(=O)n2ccsc2c1OC(C)=O
[1]
  TGI: > 100 µM
[2]
  TGI: > 100 µM
[3]
  TGI: > 100 µM
[4]
  TGI: > 100 µM
[5]
  TGI: > 100 µM
[6]
  TGI: > 100 µM
[7]
  TGI: > 100 µM
[8]
  TGI: > 100 µM
[9]
  TGI: > 100 µM
[10]
  TGI: > 100 µM
[11]
  TGI: 39.3 µM
[12]
  TGI: > 100 µM
[13]
  TGI: > 100 µM
[14]
  TGI: > 100 µM
[15]
  TGI: > 100 µM
[16]
  TGI: > 100 µM
[17]
  TGI: > 100 µM
[18]
  TGI: > 100 µM
[19]
  TGI: > 100 µM
[21]
  TGI: > 100 µM
[22]
  TGI: > 100 µM
[23]
  TGI: > 100 µM
[24]
  TGI: > 100 µM
[54]
  TGI: > 100 µM
[25]
  TGI: 57 µM
[26]
  TGI: > 100 µM
[27]
  TGI: > 100 µM
[28]
  TGI: > 100 µM
[29]
  TGI: > 100 µM
[55]
  TGI: > 100 µM
[30]
  TGI: > 100 µM
[32]
  TGI: 90.1 µM
[33]
  TGI: > 100 µM
[56]
  TGI: > 100 µM
[57]
  TGI: > 100 µM
[34]
  TGI: > 100 µM
[35]
  TGI: > 100 µM
[36]
  TGI: 46.9 µM
[37]
  TGI: > 100 µM
[38]
  TGI: > 100 µM
[39]
  TGI: > 100 µM
[40]
  TGI: > 100 µM
[41]
  TGI: > 100 µM
[42]
  TGI: > 100 µM
[43]
  TGI: > 100 µM
[44]
  TGI: > 100 µM
[45]
  TGI: > 100 µM
[46]
  TGI: > 100 µM
[47]
  TGI: > 100 µM
[48]
  TGI: > 100 µM
[49]
  TGI: > 100 µM
[50]
  TGI: > 100 µM
[52]
  TGI: > 100 µM
